Tested on: sugarcane
Assay: Sugarcane flowering inhibition field trials, floral induction rated on UFSCar scale
Format: in vivo
Description: In order to explore the activity of florpyrauxifen as flowering inhibitor in sugarcane, field studies were carried out. Florpyrauxifen-benzyl was tested at rates from 2 to 20 grams active ingredient per hectare (g ai/ha) and compared to Ethrel® 720 (Bayer), the standard treatment. The flowering inhibition effect was assessed by checking the floral induction in sugarcane through the percentage scale recommended by UFSCar (Federal University of Sao Carlos, Sao Paulo, Brazil).
Four trials were carried out in sugarcane where florpyrauxifen-benzyl (Rinskor®), applied at a rate of 2 to 20 g ai/ha, was compared to ethephon (Ethrel® 720) applied at a rate of 475 g ai/ha. Control plots of untreated sugarcane were also evaluated. Rinskor® and Ethrel® 720 were diluted in water and a single application for each study (backpack sprayer) was performed delivering 50 L of spray solution per ha at the reproductive stage of sugarcane and at a maximum 150 days before harvest. The activity of florpyrauxifen-benzyl as a flowering inhibitor was measured via assessments (Scale of flowering inhibition—see chart 1) performed at 0, 14, 30, 45, 60, 75, 90, 120, 150 days after application, or up to harvest time. The assessments were measured in sugarcane stems, rating the flowering induction according to the UFSCar scale shown below. Significance of treatment effect was evaluated with F-approximate test (α=0.1) and least square means from different treatments were compared with Tukey's test.

## COc1c(Cl)ccc(-c2nc(C(=O)OCc3ccccc3)c(Cl)c(N)c2F)c1F [Rinskor, florpyrauxifen-benzyl]
Table 1, 120 DAA, 20 g ai/ha
  % Referring to Scale: 12.8%
  Frequency 1/1 (0%): 15.0%
  Frequency 2/1 (15%): 85.0%
  Frequency 3/1 (30%): 0.0%
  Frequency 4/1 (50%): 0.0%
  Frequency 4/2 (80%): 0.0%
  Frequency 4/3 (90%): 0.0%
  Frequency 4/4 (100%): 0.0%
Table 2, 75 DAA, 2 g ai/ha
  % Referring to Scale: 1.1%
  Frequency 1/1 (0%): 92.5%
  Frequency 2/1 (15%): 7.5%
  Frequency 3/1 (30%): 0.0%
  Frequency 4/1 (50%): 0.0%
  Frequency 4/2 (80%): 0.0%
  Frequency 4/3 (90%): 0.0%
  Frequency 4/4 (100%): 0.0%
Table 2, 75 DAA, 5 g ai/ha
  % Referring to Scale: 0.8%
  Frequency 1/1 (0%): 95.0%
  Frequency 2/1 (15%): 5.0%
  Frequency 3/1 (30%): 0.0%
  Frequency 4/1 (50%): 0.0%
  Frequency 4/2 (80%): 0.0%
  Frequency 4/3 (90%): 0.0%
  Frequency 4/4 (100%): 0.0%
Table 2, 75 DAA, 7 g ai/ha
  % Referring to Scale: 0.8%
  Frequency 1/1 (0%): 95.0%
  Frequency 2/1 (15%): 5.0%
  Frequency 3/1 (30%): 0.0%
  Frequency 4/1 (50%): 0.0%
  Frequency 4/2 (80%): 0.0%
  Frequency 4/3 (90%): 0.0%
  Frequency 4/4 (100%): 0.0%
Table 2, 75 DAA, 10 g ai/ha
  % Referring to Scale: 0.4%
  Frequency 1/1 (0%): 97.5%
  Frequency 2/1 (15%): 2.5%
  Frequency 3/1 (30%): 0.0%
  Frequency 4/1 (50%): 0.0%
  Frequency 4/2 (80%): 0.0%
  Frequency 4/3 (90%): 0.0%
  Frequency 4/4 (100%): 0.0%
Table 2, 75 DAA, 15 g ai/ha
  % Referring to Scale: 1.1%
  Frequency 1/1 (0%): 92.5%
  Frequency 2/1 (15%): 7.5%
  Frequency 3/1 (30%): 0.0%
  Frequency 4/1 (50%): 0.0%
  Frequency 4/2 (80%): 0.0%
  Frequency 4/3 (90%): 0.0%
  Frequency 4/4 (100%): 0.0%
Table 2, 75 DAA, 20 g ai/ha
  % Referring to Scale: 0.8%
  Frequency 1/1 (0%): 95.0%
  Frequency 2/1 (15%): 5.0%
  Frequency 3/1 (30%): 0.0%
  Frequency 4/1 (50%): 0.0%
  Frequency 4/2 (80%): 0.0%
  Frequency 4/3 (90%): 0.0%
  Frequency 4/4 (100%): 0.0%
Table 2, 90 DAA, 2 g ai/ha
  % Referring to Scale: 60.3%
  Frequency 1/1 (0%): 0.0%
  Frequency 2/1 (15%): 0.0%
  Frequency 3/1 (30%): 20.0%
  Frequency 4/1 (50%): 32.5%
  Frequency 4/2 (80%): 47.5%
  Frequency 4/3 (90%): 0.0%
  Frequency 4/4 (100%): 0.0%
Table 2, 90 DAA, 5 g ai/ha
  % Referring to Scale: 43.5%
  Frequency 1/1 (0%): 0.0%
  Frequency 2/1 (15%): 0.0%
  Frequency 3/1 (30%): 32.5%
  Frequency 4/1 (50%): 67.5%
  Frequency 4/2 (80%): 0.0%
  Frequency 4/3 (90%): 0.0%
  Frequency 4/4 (100%): 0.0%
Table 2, 90 DAA, 7 g ai/ha
  % Referring to Scale: 44.8%
  Frequency 1/1 (0%): 0.0%
  Frequency 2/1 (15%): 0.0%
  Frequency 3/1 (30%): 37.5%
  Frequency 4/1 (50%): 55.0%
  Frequency 4/2 (80%): 7.5%
  Frequency 4/3 (90%): 0.0%
  Frequency 4/4 (100%): 0.0%
Table 2, 90 DAA, 10 g ai/ha
  % Referring to Scale: 37.4%
  Frequency 1/1 (0%): 0.0%
  Frequency 2/1 (15%): 7.5%
  Frequency 3/1 (30%): 50.0%
  Frequency 4/1 (50%): 42.5%
  Frequency 4/2 (80%): 0.0%
  Frequency 4/3 (90%): 0.0%
  Frequency 4/4 (100%): 0.0%
Table 2, 90 DAA, 15 g ai/ha
  % Referring to Scale: 39.8%
  Frequency 1/1 (0%): 0.0%
  Frequency 2/1 (15%): 15.0%
  Frequency 3/1 (30%): 25.0%
  Frequency 4/1 (50%): 60.0%
  Frequency 4/2 (80%): 0.0%
  Frequency 4/3 (90%): 0.0%
  Frequency 4/4 (100%): 0.0%
Table 2, 90 DAA, 20 g ai/ha
  % Referring to Scale: 46.0%
  Frequency 1/1 (0%): 0.0%
  Frequency 2/1 (15%): 5.0%
  Frequency 3/1 (30%): 30.0%
  Frequency 4/1 (50%): 52.5%
  Frequency 4/2 (80%): 12.5%
  Frequency 4/3 (90%): 0.0%
  Frequency 4/4 (100%): 0.0%
Table 2, 120 DAA, 2 g ai/ha
  % Referring to Scale: 95.8%
  Frequency 1/1 (0%): 0.0%
  Frequency 2/1 (15%): 0.0%
  Frequency 3/1 (30%): 0.0%
  Frequency 4/1 (50%): 0.0%
  Frequency 4/2 (80%): 5.0%
  Frequency 4/3 (90%): 32.5%
  Frequency 4/4 (100%): 62.5%
Table 2, 120 DAA, 5 g ai/ha
  % Referring to Scale: 96.5%

From US20240138411A1, “METHOD OF […] OF SUGARCANE” (CORTEVA AGRISCIENCE LLC, priority 2021, published 2024)
